# According to publication PMC4890880 (ACS infectious diseases, 2016):
# Read-outs that look alike come from different tables or passages of the source.
# What was measured:
# [1] = system: Plasmodium berghei (Pb-Luc) exoerythrocytic-stage parasites; details: for IC50: read-out: PbLuc_IC50
# HepG2-A16-CD81EGFP cells = details: for IC50: read-out: Tox_IC50, HepG2 cytotoxicity
# [2] = first series of dose-response columns, fraction of control
# [3] = first series, fraction of control
# [4] = sheet 2nd round, Broad compounds, dose response
# [5] = second series of dose-response columns, fraction of control
# [6] = second series, fraction of control
# [7] = sheet 2nd round, maximal inhibition in dose response
# [8] = 2nd round, maximal inhibition in dose series
smiles,measurement,setting,value
COc1cccc(NC(=O)N[C@@H]2CC[C@H](CC(=O)N3CCN(C)CC3)O[C@@H]2CO)c1 [BRD-K48690594-001-01-7],normalised signal at concentration 0.000508053 (first series),"[1]; concentration 0.000508053, first series",0.9068
same,normalised signal at concentration 0.000508053 (second series),"[1]; concentration 0.000508053, second series",0.9275
same,normalised signal at concentration 0.00152416 (first series),"[1]; concentration 0.00152416, first series",1.012
same,normalised signal at concentration 0.00152416 (second series),"[1]; concentration 0.00152416, second series",1.043
same,normalised signal at concentration 0.00457247 (first series),"[1]; concentration 0.00457247, first series",1.046
same,normalised signal at concentration 0.00457247 (second series),"[1]; concentration 0.00457247, second series",0.8968
same,normalised signal at concentration 0.0137174 (first series),"[1]; concentration 0.0137174, first series",1.108
same,normalised signal at concentration 0.0137174 (second series),"[1]; concentration 0.0137174, second series",0.8364
same,normalised signal at concentration 0.0411523 (first series),"[1]; concentration 0.0411523, first series",0.955
same,normalised signal at concentration 0.0411523 (second series),"[1]; concentration 0.0411523, second series",1.013
same,normalised signal at concentration 0.123457 (first series),"[1]; concentration 0.123457, first series",0.854
same,normalised signal at concentration 0.123457 (second series),"[1]; concentration 0.123457, second series",0.8546
same,normalised signal at concentration 0.37037 (first series),"[1]; concentration 0.37037, first series",1.036
same,normalised signal at concentration 0.37037 (second series),"[1]; concentration 0.37037, second series",0.9102
same,normalised signal at concentration 1.11111 (first series),"[1]; concentration 1.11111, first series",1.0718
same,normalised signal at concentration 1.11111 (second series),"[1]; concentration 1.11111, second series",0.9366
same,normalised signal at concentration 3.33333 (first series),"[1]; concentration 3.33333, first series",0.8922
same,normalised signal at concentration 3.33333 (second series),"[1]; concentration 3.33333, second series",0.9328
same,normalised signal at concentration 10 (first series),"[1]; concentration 10, first series of dose columns",0.9136
same,normalised signal at concentration 10 (second series),"[1]; concentration 10, second series of dose columns",0.9502
same,IC50,"[1]; sheet ""2nd round"", Broad compounds, dose response top concentration 10",> 10 µM
same,PbLuc_max_inhibition (%),"[1]; sheet ""2nd round""",16%
same,IC50,"HepG2-A16-CD81EGFP cells; sheet ""2nd round""",> 10 µM
same,Tox_max_inhibition (%),"HepG2-A16-CD81EGFP cells; sheet ""2nd round""",14%
C[C@@H]1CN([C@H](C)CO)C(=O)c2cc(N(C)C)ccc2O[C@@H](C)CCCCO[C@@H]1CN(C)S(=O)(=O)c1ccc(F)cc1 [BRD-K12341671-001-01-5],normalized signal at concentration 10,[1]; [2],0.50
same,normalized signal at concentration 0.000508053,[1]; [3],0.77
same,normalized signal at concentration 0.00152416,[1]; [3],1.03
same,normalized signal at concentration 0.00457247,[1]; [3],1.06
same,normalized signal at concentration 0.0137174,[1]; [3],0.89
same,normalized signal at concentration 0.0411523,[1]; [3],0.99
same,normalized signal at concentration 0.123457,[1]; [3],1.04
same,normalized signal at concentration 0.37037,[1]; [3],0.93
same,normalized signal at concentration 1.11111,[1]; [3],0.88
same,normalized signal at concentration 3.33333,[1]; [3],0.70
same,IC50,[1]; [4],> 10 µM
same,normalized signal at concentration 10,[1]; [5],0.50
same,normalized signal at concentration 0.000508053,[1]; [6],0.88
same,normalized signal at concentration 0.00152416,[1]; [6],1.15
same,normalized signal at concentration 0.00457247,[1]; [6],0.85
same,normalized signal at concentration 0.0137174,[1]; [6],0.84
same,normalized signal at concentration 0.0411523,[1]; [6],0.98
same,normalized signal at concentration 0.123457,[1]; [6],0.98
same,normalized signal at concentration 0.37037,[1]; [6],0.92
same,normalized signal at concentration 1.11111,[1]; [6],0.85
same,normalized signal at concentration 3.33333,[1]; [6],0.80
same,PbLuc_max_inhibition (%),[1]; [7],50%
same,IC50,HepG2-A16-CD81EGFP cells; sheet 2nd round,> 10 µM
same,Tox_max_inhibition (%),HepG2-A16-CD81EGFP cells; [7],5%
CN(C)C(=O)c1ccc(-c2ccc([C@@H]3[C@H]4CN(C(=O)CC5CC5)CC(=O)N4[C@H]3CO)cc2)cc1 [BRD-K27481961-001-01-1],normalized signal at concentration 10,[1]; [2],1.04
same,normalized signal at concentration 0.000508053,[1]; [3],0.88
same,normalized signal at concentration 0.00152416,[1]; [3],0.98
same,normalized signal at concentration 0.00457247,[1]; [3],1.01
same,normalized signal at concentration 0.0137174,[1]; [3],0.77
same,normalized signal at concentration 0.0411523,[1]; [3],0.91
same,normalized signal at concentration 0.123457,[1]; [3],0.95
same,normalized signal at concentration 0.37037,[1]; [3],0.98
same,normalized signal at concentration 1.11111,[1]; [3],1.00
same,normalized signal at concentration 3.33333,[1]; [3],0.94
same,IC50,[1]; [4],> 10 µM
same,normalized signal at concentration 10,[1]; [5],0.89
same,normalized signal at concentration 0.000508053,[1]; [6],1.05
same,normalized signal at concentration 0.00152416,[1]; [6],1.04
same,normalized signal at concentration 0.00457247,[1]; [6],0.89
same,normalized signal at concentration 0.0137174,[1]; [6],0.89
same,normalized signal at concentration 0.0411523,[1]; [6],0.96
same,normalized signal at concentration 0.123457,[1]; [6],1.12
same,normalized signal at concentration 0.37037,[1]; [6],1.12
same,normalized signal at concentration 1.11111,[1]; [6],0.98
same,normalized signal at concentration 3.33333,[1]; [6],1.20
same,PbLuc_max_inhibition (%),[1]; [7],23%
same,IC50,HepG2-A16-CD81EGFP cells; sheet 2nd round,> 10 µM
same,Tox_max_inhibition (%),HepG2-A16-CD81EGFP cells; [7],6%
C[C@@H]1CN([C@H](C)CO)C(=O)c2cccc(NC(=O)c3ccc(-c4nccs4)cc3)c2O[C@H]1CN(C)C(=O)Nc1ccc(C(F)(F)F)cc1 [BRD-K64517877-001-01-9],PbLuc_max_inhibition (%),[1]; [8],27%
same,normalized signal at 0.000508053 (first series),"[1]; concentration 0.000508053, first replicate series, fraction of control",0.8077
same,normalized signal at 0.000508053 (second series),"[1]; concentration 0.000508053, second replicate series, fraction of control",1.002
same,normalized signal at 0.00152416 (first series),"[1]; concentration 0.00152416, first replicate series, fraction of control",0.8666
same,normalized signal at 0.00152416 (second series),"[1]; concentration 0.00152416, second replicate series, fraction of control",0.9304
same,normalized signal at 0.00457247 (first series),"[1]; concentration 0.00457247, first replicate series, fraction of control",0.8925
same,normalized signal at 0.00457247 (second series),"[1]; concentration 0.00457247, second replicate series, fraction of control",0.7834
same,normalized signal at 0.0137174 (first series),"[1]; concentration 0.0137174, first replicate series, fraction of control",1.197
same,normalized signal at 0.0137174 (second series),"[1]; concentration 0.0137174, second replicate series, fraction of control",0.7634
same,normalized signal at 0.0411523 (first series),"[1]; concentration 0.0411523, first replicate series, fraction of control",0.9517
same,normalized signal at 0.0411523 (second series),"[1]; concentration 0.0411523, second replicate series, fraction of control",0.9123
same,normalized signal at 0.123457 (first series),"[1]; concentration 0.123457, first replicate series, fraction of control",1.1239
same,normalized signal at 0.123457 (second series),"[1]; concentration 0.123457, second replicate series, fraction of control",0.9202
same,normalized signal at 0.37037 (first series),"[1]; concentration 0.37037, first replicate series, fraction of control",0.912
same,normalized signal at 0.37037 (second series),"[1]; concentration 0.37037, second replicate series, fraction of control",0.776
same,normalized signal at 1.11111 (first series),"[1]; concentration 1.11111, first replicate series, fraction of control",0.8174
same,normalized signal at 1.11111 (second series),"[1]; concentration 1.11111, second replicate series, fraction of control",0.8082
same,normalized signal at 3.33333 (first series),"[1]; concentration 3.33333, first replicate series, fraction of control",0.9935
same,normalized signal at 3.33333 (second series),"[1]; concentration 3.33333, second replicate series, fraction of control",0.7269
same,normalized signal at 10 (first series),"[1]; concentration 10, first replicate series, fraction of control",1.005
same,normalized signal at 10 (second series),"[1]; concentration 10, second replicate series, fraction of control",0.7551
same,IC50,"[1]; 2nd round, Broad DOS compounds, unit not printed (dose series head 10 to 0.000508053)",> 10 µM
same,Tox_max_inhibition (%),HepG2-A16-CD81EGFP cells; [8],9%
same,IC50,"HepG2-A16-CD81EGFP cells; 2nd round, unit inferred",> 10 µM
O=S(=O)(c1cccs1)N1CCCCN2[C@H](CO)[C@H](c3ccc(/C=C/c4ccccc4)cc3)[C@H]2C1 [BRD-K20449903-001-01-6],normalized signal at concentration 10,[1]; [2],0.52
same,normalized signal at concentration 0.000508053,[1]; [3],1.07
same,normalized signal at concentration 0.00152416,[1]; [3],1.07
same,normalized signal at concentration 0.00457247,[1]; [3],0.84
same,normalized signal at concentration 0.0137174,[1]; [3],1.09
same,normalized signal at concentration 0.0411523,[1]; [3],0.93
same,normalized signal at concentration 0.123457,[1]; [3],1.01
same,normalized signal at concentration 0.37037,[1]; [3],1.01
same,normalized signal at concentration 1.11111,[1]; [3],1.05
same,normalized signal at concentration 3.33333,[1]; [3],1.18
same,IC50,[1]; [4],> 10 µM
same,normalized signal at concentration 10,[1]; [5],0.70
same,normalized signal at concentration 0.000508053,[1]; [6],0.94
same,normalized signal at concentration 0.00152416,[1]; [6],1.05
same,normalized signal at concentration 0.00457247,[1]; [6],0.96
same,normalized signal at concentration 0.0137174,[1]; [6],1.06
same,normalized signal at concentration 0.0411523,[1]; [6],1.19
same,normalized signal at concentration 0.123457,[1]; [6],1.23
same,normalized signal at concentration 0.37037,[1]; [6],0.91
same,normalized signal at concentration 1.11111,[1]; [6],1.04
same,normalized signal at concentration 3.33333,[1]; [6],1.04
same,PbLuc_max_inhibition (%),[1]; [7],48%
same,IC50,HepG2-A16-CD81EGFP cells; sheet 2nd round,> 10 µM
same,Tox_max_inhibition (%),HepG2-A16-CD81EGFP cells; [7],9%
COc1ccc(S(=O)(=O)N(C)C[C@H]2Oc3ccc(NC(=O)Cc4cn(C)c5ccccc45)cc3C(=O)N([C@H](C)CO)C[C@@H]2C)cc1 [BRD-K30240821-001-02-4],normalized signal at concentration 10,[1]; [2],0.7772
same,normalized signal at concentration 0.000508053,[1]; [3],0.8923
same,normalized signal at concentration 0.00152416,[1]; [3],0.848
same,normalized signal at concentration 0.00457247,[1]; [3],0.7066
same,normalized signal at concentration 0.0137174,[1]; [3],0.8032
same,normalized signal at concentration 0.0411523,[1]; [3],0.8311
same,normalized signal at concentration 0.123457,[1]; [3],1.098
same,normalized signal at concentration 0.37037,[1]; [3],0.9739
same,normalized signal at concentration 1.11111,[1]; [3],0.9836
same,normalized signal at concentration 3.33333,[1]; [3],0.9041
same,IC50,[1]; [4],> 10 µM
same,normalized signal at concentration 10,[1]; [5],0.9286
same,normalized signal at concentration 0.000508053,[1]; [6],0.993
same,normalized signal at concentration 0.00152416,[1]; [6],0.893
same,normalized signal at concentration 0.00457247,[1]; [6],0.9938
same,normalized signal at concentration 0.0137174,[1]; [6],0.8741
same,normalized signal at concentration 0.0411523,[1]; [6],1.056
same,normalized signal at concentration 0.123457,[1]; [6],0.8643
same,normalized signal at concentration 0.37037,[1]; [6],1.021
same,normalized signal at concentration 1.11111,[1]; [6],1.07
same,normalized signal at concentration 3.33333,[1]; [6],1.082
same,PbLuc_max_inhibition (%),[1]; [7],29%
same,IC50,HepG2-A16-CD81EGFP cells; sheet 2nd round,> 10 µM
same,Tox_max_inhibition (%),HepG2-A16-CD81EGFP cells; [7],8.48%
